Entries after “also recorded” stand apart in the source; their conditions may differ.
Columns and labels:
[1] = test system: Bax/Bak double knockout MEFs; assay: Cell viability in Bax/Bak double knockout MEFs; format: cell-based; conditions: 15 h
Method: (§1) FIG. 5A-B: A) 483 induces Bax/Bak and Mcl-1 dependent cell death. Mouse Embryonic Fibroblasts (MEFs) were treated for 15 h with 483 and ABT263. Cell viability was assessed using propidium iodide staining detected with flow cytometry. […] Cells were treated for 15 h with increasing concentrations of (A) 483 and (B) ABT263. […] The percentage of dead cells was calculated using LIVE/DEAD fixable violet dead cell stain (VIVID) and detected with flow cytometry. (*) is p<0.001.
(§2) Wild-type, Bax/Bak double knockout and Mcl-1 knockout MEFs cells have been employed as models to establish the mechanism-based apoptosis and on-target activity (see, e.g., Lindsten, T., and Thompson, C. B. (2006) Cell death and differentiation 13, 1272-1276). […] The specificity of this class Mcl-1 inhibitors was further confirmed by using cell lines developed by retroviral transduction of lymphoma cells isolated from Eg-myc transgenic mice which survival depends on the expression of individual prosurvival protein.

Mcl-1 knockout MEFs = format: cell-based; conditions: 15 h
Method: Cell viability was assessed using propidium iodide staining detected with flow cytometry. […] The percentage of dead cells was calculated using LIVE/DEAD fixable violet dead cell stain (VIVID) and detected with flow cytometry.

Bcl-2 = Bcl-2 (Homo sapiens, UniProt P10415); assay: Binding selectivity, Bcl-2
Panc-1 cells = assay: Cell growth inhibition of Panc-1 by MTT assay, ABT-263 with 483; format: cell-based
From the text: FIG. 7: 483 synergizes with ABT-263 to kill Panc-1 cells.
As expected, ABT-263 had little effect on this cell line (FIG. 7).

Bcl-xL [2] = target: T1, Bcl-xL (Homo sapiens, UniProt Q07817); assay: Cell-free functional assay with purified mitochondria, Smac release, Bcl-xL; format: biochemical; conditions: concentrations as high as 9 μM
From the text: To provide direct evidence that 483 and 487 also selectively antagonize Mcl-1 function, a cell-free functional assay was established using purified mitochondria, recombinant Mcl-1 and Bcl-xL proteins, and the BIM BH3 peptide which binds to both proteins with high affinities.

Bcl-w = target: T2, Bcl-w (Homo sapiens, UniProt Q92843); assay: Binding selectivity, Bcl-w
T2 sequence (Q92843 1-193): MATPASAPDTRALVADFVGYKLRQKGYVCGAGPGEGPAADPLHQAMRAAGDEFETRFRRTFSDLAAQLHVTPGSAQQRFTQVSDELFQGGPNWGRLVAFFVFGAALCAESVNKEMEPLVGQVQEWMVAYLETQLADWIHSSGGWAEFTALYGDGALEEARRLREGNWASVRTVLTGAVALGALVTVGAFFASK

[3] = test system: Eμ-myc lymphoma cells overexpressing Bcl-2; assay: Cell death in Eμ-myc lymphoma cells overexpressing Bcl-2; format: cell-based, mouse; conditions: Eμ-myc lymphoma overexpressing Bcl-2, 15 h
Method: as §1, §2

wild-type MEFs = assay: Cell viability in wild-type MEFs; format: cell-based, mouse; conditions: 15 h, propidium iodide staining, flow cytometry
Method: as §1, §2

endogenous Mcl-1 protein = target: T3, endogenous Mcl-1 protein (Homo sapiens, UniProt Q07820); assay: Pull-down assay using biotin-labeled Noxa and 2LMP whole cell lysate; format: binding; conditions: Western blot with anti-Mcl-1 antibody
T3 construct: endogenous in cells; host or cells: 2LMP human breast cancer cells (whole cell lysate)
Method: FIG. 3: Mcl-1 inhibitors recognize and bind endogenous Mcl-1 protein. Biotin-labeled Noxa (BL-Noxa, […]) was incubated with whole cell lysates of 2LMP cells with or without tested Mcl-1 inhibitors and Bim BH3 peptide as a positive control, followed by incubation with precleared streptavidin agarose beads. Eluted beads were subjected to Western blot analysis with anti-Mcl-1 antibody.

[4] = test system: Eμ-myc lymphoma cells overexpressing Mcl-1; assay: Cell death in Eμ-myc lymphoma cells overexpressing Mcl-1; format: cell-based, mouse; conditions: Eμ-myc lymphoma overexpressing Mcl-1, 15 h, VIVID stain, flow cytometry
Method: as §1, §2

Mcl-1 [5] = target: T4, Mcl-1 (Homo sapiens, UniProt Q07820); assay: FP based binding assay to Mcl-1 (Bid BH3 peptide probe); conditions: binding affinity to Mcl-1
Target sequence in this assay (Q07820 whole entry): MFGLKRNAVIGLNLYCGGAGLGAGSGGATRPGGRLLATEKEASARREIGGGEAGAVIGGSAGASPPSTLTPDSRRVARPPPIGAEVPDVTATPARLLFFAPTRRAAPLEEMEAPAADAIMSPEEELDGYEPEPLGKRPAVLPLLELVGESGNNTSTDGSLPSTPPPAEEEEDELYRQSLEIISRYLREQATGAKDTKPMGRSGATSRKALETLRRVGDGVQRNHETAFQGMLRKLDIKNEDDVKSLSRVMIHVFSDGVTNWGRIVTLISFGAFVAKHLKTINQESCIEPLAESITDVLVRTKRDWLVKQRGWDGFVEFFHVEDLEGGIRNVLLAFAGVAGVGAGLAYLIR

[6] = target: T5, Mcl-1/BAK protein-protein interactions (Homo sapiens, UniProt Q07820); assay: Co-immunoprecipitation of Mcl-1 protein in Panc-1 cells; format: cell-based; conditions: different concentrations, Mcl-1 immunoprecipitation and Western blot
T5 construct: endogenous in cells; host or cells: Panc-1 cells
From the text: FIG. 8: 483LM disrupts the Mcl-1/BAK protein-protein interactions in Panc-1 cell line.

Bcl-xL [7] = target: T1, Bcl-xL; assay: Binding selectivity, Bcl-xL
Mcl-1 [8] = target: T4, Mcl-1; conditions: cited from earlier work
Target sequence in this assay (Q07820 whole entry, species assumed): as the sequence (Q07820 whole entry) above

T1 sequence (Q07817 whole entry, species assumed): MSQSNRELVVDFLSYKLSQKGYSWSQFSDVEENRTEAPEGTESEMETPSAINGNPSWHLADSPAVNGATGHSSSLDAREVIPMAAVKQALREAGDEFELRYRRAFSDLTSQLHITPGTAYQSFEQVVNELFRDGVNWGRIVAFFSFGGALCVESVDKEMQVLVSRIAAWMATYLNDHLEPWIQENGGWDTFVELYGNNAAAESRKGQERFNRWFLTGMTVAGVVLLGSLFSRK
T5 sequence (Q07820 whole entry): as the sequence (Q07820 whole entry) above
Bcl-2, sequence (P10415 whole entry, species assumed): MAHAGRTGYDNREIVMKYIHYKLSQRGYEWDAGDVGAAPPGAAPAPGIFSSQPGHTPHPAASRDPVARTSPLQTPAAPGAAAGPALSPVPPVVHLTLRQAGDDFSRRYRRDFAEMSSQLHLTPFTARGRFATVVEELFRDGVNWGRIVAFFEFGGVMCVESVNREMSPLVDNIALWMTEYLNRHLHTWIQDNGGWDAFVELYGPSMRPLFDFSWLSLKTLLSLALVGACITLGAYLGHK
T3 sequence (Q07820 whole entry): as the sequence (Q07820 whole entry) above

CC(C)c1cc(NC(=O)c2ccc(Oc3ccccc3)cc2)c(C(=O)O)cc1-c1ccc(COc2cccc(C(F)(F)F)c2)cc1 [Compound 483, 6-isopropyl-4-(4-phenoxybenzamido)-4′-((3-(trifluoromethyl)phenoxy)methyl)-[1,1′-biphenyl]-3-carboxylic acid]
cytotoxicity [1]: didn't show cytotoxicity
cytotoxicity / growth-inhibitory activity (Mcl-1 knockout MEFs): didn't show cytotoxicity
Ki (Bcl-2): > 1000 nM
combination effect with ABT-263 (Panc-1 cells; Panc-1, 48 h): synergizes; also recorded: substantially shifted the dose-response curve
improvement of IC50 of cell growth inhibition of ABT-263 (Panc-1 cells; Panc-1, ABT-263 in the presence of 483, 48 h): more than 660 fold
release of Smac in the Bcl-xL functional assay (Bcl-xL [2]): fail to release Smac
Ki (Bcl-w): > 1000 nM
effect on cells [3]: did not show effect
cell death (wild-type MEFs): causes cell death
blocking of the binding of BL-Noxa to Mcl-1 (endogenous Mcl-1 protein): dose-dependent blocked
cell death / sensitization [4]: led to sensitization; also recorded: selectively induces cell death
Ki (Mcl-1 [5]): 7 ± 2 nM
disruption of Mcl-1/Bak protein-protein interactions [6]: dose-dependent disruption
disruption of Mcl-1/Bak protein-protein interactions ([6]; listed as 483LM): disrupts
Ki (Bcl-xL [7]): > 1000 nM

CN(C)CC[C@H](CSc1ccccc1)Nc1ccc(S(=O)(=O)NC(=O)c2ccc(N3CCN(Cc4ccccc4-c4ccc(Cl)cc4)CC3)cc2)cc1[N+](=O)[O-] [ABT-737]
binding to Mcl-1 (Mcl-1 [8]): fails to bind

Reference: US9884841B2, “Small molecule inhibitors of Mcl-1 and uses thereof” (The Regents of the University of Michigan, priority 2015, dated 2018)
